Source: ChEMBL document CHEMBL3576805, “Discovery of a Dual PRMT5-PRMT7 Inhibitor” (ACS Med Chem Lett, 2015)
The source made the active and inactive calls. The rule behind the calls is not given here.

What was measured:
[1] = target: T1, PRMT5/MEP50 complex (Homo sapiens, UniProt O14744); assay: (§1) Inhibition of human full length PRMT5-MEP50 complex expressed in Sf9 cells
[2] = target: T2, PRMT5/MEP50 complex (Homo sapiens) (UniProt O14744+Q9BQA1); assay: Inhibition of human full length PRMT5-MEP50 complex expressed in Sf9 cells assessed as inhibition of methylation of peptide substrate at 750 uM
[3] = target: T3, Protein arginine N-methyltransferase 7 (Homo sapiens, UniProt Q9NVM4); assay: Inhibition of human full length PRMT7 expressed in Sf9 cells
T3 sequence (Q9NVM4 whole entry): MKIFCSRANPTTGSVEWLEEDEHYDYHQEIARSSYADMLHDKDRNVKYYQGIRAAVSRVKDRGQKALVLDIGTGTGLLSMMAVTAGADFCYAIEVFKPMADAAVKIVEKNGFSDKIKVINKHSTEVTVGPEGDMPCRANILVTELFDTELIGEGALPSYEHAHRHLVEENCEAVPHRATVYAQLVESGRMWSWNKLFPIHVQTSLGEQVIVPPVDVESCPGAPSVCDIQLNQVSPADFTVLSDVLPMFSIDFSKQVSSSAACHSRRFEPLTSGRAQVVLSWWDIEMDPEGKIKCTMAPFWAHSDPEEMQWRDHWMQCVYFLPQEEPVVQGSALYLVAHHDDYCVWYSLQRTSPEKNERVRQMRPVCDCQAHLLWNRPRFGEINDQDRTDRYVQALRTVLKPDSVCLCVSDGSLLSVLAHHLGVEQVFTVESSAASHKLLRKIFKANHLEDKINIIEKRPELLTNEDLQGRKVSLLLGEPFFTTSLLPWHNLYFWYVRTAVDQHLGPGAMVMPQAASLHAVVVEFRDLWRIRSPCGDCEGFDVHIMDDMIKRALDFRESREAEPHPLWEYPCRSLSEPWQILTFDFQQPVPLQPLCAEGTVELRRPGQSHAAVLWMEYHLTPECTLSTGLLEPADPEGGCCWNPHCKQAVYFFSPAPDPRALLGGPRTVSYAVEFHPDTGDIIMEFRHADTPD

[4] = target: DNA (cytosine-5)-methyltransferase 3A (Homo sapiens, UniProt Q9Y6K1); assay: Inhibition of human full length DNMT3A expressed in Sf9 cells
Sequence of DNA (cytosine-5)-methyltransferase 3A (Q9Y6K1 whole entry, looked up): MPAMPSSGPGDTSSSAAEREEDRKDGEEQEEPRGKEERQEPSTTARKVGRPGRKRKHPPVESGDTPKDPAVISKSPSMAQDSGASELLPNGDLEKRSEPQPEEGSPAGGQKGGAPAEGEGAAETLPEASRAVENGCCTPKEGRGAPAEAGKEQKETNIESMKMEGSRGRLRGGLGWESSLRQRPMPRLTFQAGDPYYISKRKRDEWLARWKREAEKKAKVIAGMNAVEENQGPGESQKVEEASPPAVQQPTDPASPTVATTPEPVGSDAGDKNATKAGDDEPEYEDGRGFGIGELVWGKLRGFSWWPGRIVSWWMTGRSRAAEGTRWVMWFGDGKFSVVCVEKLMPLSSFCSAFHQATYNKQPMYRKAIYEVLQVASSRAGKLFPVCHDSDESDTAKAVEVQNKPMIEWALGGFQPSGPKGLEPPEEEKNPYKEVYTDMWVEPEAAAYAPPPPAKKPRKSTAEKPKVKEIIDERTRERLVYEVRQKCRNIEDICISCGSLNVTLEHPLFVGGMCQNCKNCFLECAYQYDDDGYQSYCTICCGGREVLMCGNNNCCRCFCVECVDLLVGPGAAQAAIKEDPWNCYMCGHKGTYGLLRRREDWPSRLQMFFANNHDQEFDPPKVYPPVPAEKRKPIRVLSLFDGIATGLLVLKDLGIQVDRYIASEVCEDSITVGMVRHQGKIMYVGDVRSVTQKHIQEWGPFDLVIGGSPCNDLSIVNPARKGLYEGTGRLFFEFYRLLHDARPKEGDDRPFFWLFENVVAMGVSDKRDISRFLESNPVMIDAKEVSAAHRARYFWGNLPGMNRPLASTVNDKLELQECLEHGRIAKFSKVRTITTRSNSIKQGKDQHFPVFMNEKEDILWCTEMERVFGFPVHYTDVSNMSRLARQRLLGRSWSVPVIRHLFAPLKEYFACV

[5] = target: DNA (cytosine-5)-methyltransferase 3B (Homo sapiens, UniProt Q9UBC3); assay: Inhibition of human full length DNMT3B expressed in Sf9 cells
[6] = target: T2, PRMT5/MEP50 complex (Homo sapiens); assay: as §1
[7] = target: Protein arginine N-methyltransferase 5 (Homo sapiens, UniProt O14744); assay: Inhibition of human full length PRMT5 expressed in Sf9 cells
Sequence of Protein arginine N-methyltransferase 5 (O14744 whole entry): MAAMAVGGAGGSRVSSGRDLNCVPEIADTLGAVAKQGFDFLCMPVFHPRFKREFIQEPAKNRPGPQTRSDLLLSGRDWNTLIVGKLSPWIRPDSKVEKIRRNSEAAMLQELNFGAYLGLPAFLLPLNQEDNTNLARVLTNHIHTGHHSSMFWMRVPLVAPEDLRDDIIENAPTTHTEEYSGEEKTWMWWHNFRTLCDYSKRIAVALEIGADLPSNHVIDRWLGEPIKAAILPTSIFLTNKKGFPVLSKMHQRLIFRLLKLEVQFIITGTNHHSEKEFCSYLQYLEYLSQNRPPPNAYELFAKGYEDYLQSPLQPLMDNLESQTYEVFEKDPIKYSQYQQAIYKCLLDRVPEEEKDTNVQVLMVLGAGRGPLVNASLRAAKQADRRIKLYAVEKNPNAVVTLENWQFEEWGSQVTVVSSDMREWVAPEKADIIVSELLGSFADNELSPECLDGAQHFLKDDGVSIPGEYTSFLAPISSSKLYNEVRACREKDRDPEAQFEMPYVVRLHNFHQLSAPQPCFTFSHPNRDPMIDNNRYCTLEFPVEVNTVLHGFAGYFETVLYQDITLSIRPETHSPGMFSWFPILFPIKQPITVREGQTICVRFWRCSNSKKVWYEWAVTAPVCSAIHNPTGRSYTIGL

[8] = target: T1, PRMT5/MEP50 complex; assay: Binding affinity to human full length PRMT5-MEP50 complex by Surface plasmon resonance method; format: protein-complex assay
[9] = target: T3, Protein arginine N-methyltransferase 7; assay: Binding affinity to human full length PRMT7 by Surface plasmon resonance method
[10] = target: T2, PRMT5/MEP50 complex (Homo sapiens); assay: Noncompetitive inhibition of human full length PRMT5-MEP50 complex expressed in Sf9 cells in presence of increasing concentration of histone peptide substrate
[11] = target: Protein arginine N-methyltransferase 1 (Homo sapiens) (UniProt Q99873); assay: Inhibition of PRMT1 (unknown origin)
Sequence of Protein arginine N-methyltransferase 1 (Homo sapiens) (Q99873 whole entry, looked up): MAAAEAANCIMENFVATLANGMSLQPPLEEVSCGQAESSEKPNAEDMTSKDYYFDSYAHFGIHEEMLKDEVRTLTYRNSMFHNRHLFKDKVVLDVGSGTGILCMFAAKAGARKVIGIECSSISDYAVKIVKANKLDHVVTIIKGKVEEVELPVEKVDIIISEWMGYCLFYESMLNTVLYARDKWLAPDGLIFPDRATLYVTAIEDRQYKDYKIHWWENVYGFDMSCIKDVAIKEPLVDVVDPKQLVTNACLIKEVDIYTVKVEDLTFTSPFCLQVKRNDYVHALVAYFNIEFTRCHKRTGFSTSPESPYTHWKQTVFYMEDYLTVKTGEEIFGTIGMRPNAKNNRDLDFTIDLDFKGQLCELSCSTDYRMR

[12] = target: Protein arginine N-methyltransferase 3 (Homo sapiens) (UniProt O60678); assay: Inhibition of PRMT3 (unknown origin)
Sequence of Protein arginine N-methyltransferase 3 (Homo sapiens) (O60678 2-531 limits assumed): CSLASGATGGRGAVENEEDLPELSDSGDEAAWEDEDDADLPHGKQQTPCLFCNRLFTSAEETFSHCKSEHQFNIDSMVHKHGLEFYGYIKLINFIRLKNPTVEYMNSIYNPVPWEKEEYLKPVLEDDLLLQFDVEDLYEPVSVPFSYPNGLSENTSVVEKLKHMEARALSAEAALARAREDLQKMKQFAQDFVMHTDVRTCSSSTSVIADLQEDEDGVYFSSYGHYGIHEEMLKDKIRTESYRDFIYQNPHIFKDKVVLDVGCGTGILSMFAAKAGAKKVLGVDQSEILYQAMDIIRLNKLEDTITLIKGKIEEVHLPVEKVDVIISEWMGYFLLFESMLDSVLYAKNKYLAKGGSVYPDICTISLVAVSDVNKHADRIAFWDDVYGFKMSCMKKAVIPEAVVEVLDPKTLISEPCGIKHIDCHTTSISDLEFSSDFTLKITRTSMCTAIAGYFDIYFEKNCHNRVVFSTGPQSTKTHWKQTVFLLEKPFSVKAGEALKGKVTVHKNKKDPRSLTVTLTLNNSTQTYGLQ

[13] = target: Protein arginine N-methyltransferase 6 (Homo sapiens) (UniProt Q96LA8); assay: Inhibition of PRMT6 (unknown origin)
Sequence of Protein arginine N-methyltransferase 6 (Homo sapiens) (Q96LA8 whole entry, looked up): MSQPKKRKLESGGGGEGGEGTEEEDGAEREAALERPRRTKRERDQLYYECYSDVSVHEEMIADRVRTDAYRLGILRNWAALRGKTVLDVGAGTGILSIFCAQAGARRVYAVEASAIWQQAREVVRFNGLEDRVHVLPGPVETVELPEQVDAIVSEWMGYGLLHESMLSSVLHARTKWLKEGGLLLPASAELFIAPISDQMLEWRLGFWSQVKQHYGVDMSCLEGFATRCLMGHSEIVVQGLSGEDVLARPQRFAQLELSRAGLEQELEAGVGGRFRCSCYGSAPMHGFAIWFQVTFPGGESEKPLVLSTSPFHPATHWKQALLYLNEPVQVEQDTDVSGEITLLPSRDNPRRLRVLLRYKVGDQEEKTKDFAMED

[14] = target: Protein arginine N-methyltransferase 8 (Homo sapiens) (UniProt Q9NR22); assay: Inhibition of PRMT8 (unknown origin)
Sequence of Protein arginine N-methyltransferase 8 (Homo sapiens) (Q9NR22 2-394 limits assumed): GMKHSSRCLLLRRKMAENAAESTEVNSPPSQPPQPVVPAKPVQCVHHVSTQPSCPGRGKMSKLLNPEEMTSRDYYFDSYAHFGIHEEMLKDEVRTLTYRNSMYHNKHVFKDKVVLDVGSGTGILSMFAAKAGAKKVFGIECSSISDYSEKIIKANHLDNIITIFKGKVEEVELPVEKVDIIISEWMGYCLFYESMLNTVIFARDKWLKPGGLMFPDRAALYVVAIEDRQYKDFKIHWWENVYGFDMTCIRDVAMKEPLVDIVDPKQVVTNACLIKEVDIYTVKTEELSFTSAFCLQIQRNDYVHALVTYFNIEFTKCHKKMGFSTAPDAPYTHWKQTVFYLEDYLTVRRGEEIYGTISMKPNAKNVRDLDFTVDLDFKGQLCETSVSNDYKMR

[15] = test system: MDA-MB-231; assay: Inhibition of H4R3 methylation in human MDA-MB-231 cells at 50 uM by immunoblotting analysis; format: functional, cell-based
[16] = test system: MDA-MB-231; assay: Cytotoxicity against human MDA-MB-231 cells assessed as cell viability by Alamar blue assay; format: cell-based
[17] = target: T2, PRMT5/MEP50 complex (Homo sapiens); assay: Inhibition of human full length PRMT5-MEP50 complex expressed in Sf9 cells using SmD3 peptide AGRGRGKAAILKAQVAARGRGRGMGRGN as a substrate
[18] = target: T1, PRMT5/MEP50 complex; assay: Inhibition of human full length PRMT5-MEP50 complex expressed in Sf9 cells using full length histone H4 substrate

T1 sequence (O14744 whole entry): as the sequence (O14744 whole entry) above
T1 sequence (Q9BQA1 whole entry, further chain): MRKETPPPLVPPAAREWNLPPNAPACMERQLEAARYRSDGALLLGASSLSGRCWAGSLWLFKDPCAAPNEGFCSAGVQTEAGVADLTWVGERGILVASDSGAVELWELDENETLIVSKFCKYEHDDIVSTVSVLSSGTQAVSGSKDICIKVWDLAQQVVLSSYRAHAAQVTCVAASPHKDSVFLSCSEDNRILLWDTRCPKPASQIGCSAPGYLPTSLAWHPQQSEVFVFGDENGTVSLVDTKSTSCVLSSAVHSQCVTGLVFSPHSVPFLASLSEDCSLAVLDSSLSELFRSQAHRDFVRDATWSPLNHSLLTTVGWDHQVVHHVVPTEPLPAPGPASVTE

IC50 [1] [µM]	inhibition [2] [%]	IC50 [3] [µM]	IC50 [4] [µM]	IC50 [5] [µM]	inhibition [6]	IC50 [7] [µM]	Kd [8] [µM]	Kd [9] [µM]	inhibition [10]	inhibition [11]	inhibition [12]	inhibition [13]	inhibition [14]	inhibition [17]	IC50 [18] [µM]	Compound	inhibition [15]	Activity [16]
> 20	80	7.5	–	–	–	–	–	–	–	–	–	–	–	–	–	CC(C)N(CCCNC(=O)Nc1ccc(C(C)(C)C)cc1)C[C@H]1O[C@@H](n2ccc3c(N)ncnc32)[C@H](O)[C@@H]1O	–	–
–	–	–	> 50	> 50	–	–	–	–	–	–	–	–	–	–	–	Nc1ncnc2c1ncn2[C@@H]1O[C@H](CSCC[C@H](N)C(=O)O)[C@@H](O)[C@H]1O [S-ADENOSYLHOMOCYSTEINE]	–	–
5.9	–	> 50	> 50	> 50	Dose-dependent effect	> 50	25	37	Active	inactive	inactive	inactive	inactive	Active	37	CCNC(=O)NCCSC[C@H]1O[C@@H](n2cnc3c(N)ncnc32)[C@H](O)[C@@H]1O	inactive	Non-toxic
